The subject of the experiment is bacterial strain LF82 binding to the glycoprotein BSA-(Mannose)3 (FimH antagonists). The experiment can be described thus: Bacterial Binding Assay (BBA). It is filed as cell-based, Escherichia coli. Conditions: read-out: Bacterial Binding Assay IC50 ± SEM. The procedure, abridged: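 Luciferase-expressing E. coli LF82, grown overnight at 37 °C without shaking, added as 2×10^8 bacteria/mL suspension with compound in BSA/D-PBS binding buffer. Wells were coated with 0.5–2 μg/mL BSA-(Man)3 and BSA-blocked, with 40–75 min binding at room temperature. After washing, adherent bacteria were read by luciferase luminescence and IC50 derived.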

For `O=C(NC1CCCC1)c1cc(C#C[C@H]2O[C@H](CO)[C@@H](O)[C@H](O)[C@@H]2O)c2[nH]ncc2c1` [Compound 64, N-cyclopentyl-7-[2-[(2R,3S,4R,5S,6R)-3,4,5-trihydroxy-6-(hydroxymethyl)tetrahydropyran-2-yl]ethynyl]-1H-indazole-5-carboxamide], the half-maximal inhibitory concentration (IC50) (as a rule, the concentration that inhibits the measured activity by half) was 50 ± 7 nM.
As to `CCCN(C)C(=O)c1cc(C#C[C@H]2O[C@H](CO)[C@@H](O)[C@H](O)[C@@H]2O)c2[nH]ncc2c1` [Compound 65, N-methyl-N-propyl-7-[2-[(2R,3S,4R,5S,6R)-3,4,5-trihydroxy-6-(hydroxymethyl)tetrahydropyran-2-yl]ethynyl]-1H-indazole-5-carboxamide], the IC50 was 0.8 ± 0.1 nM.
To `OC[C@H]1O[C@H](C#Cc2cc(-n3cc(-c4ccccc4)nn3)cc3cn[nH]c23)[C@@H](O)[C@@H](O)[C@@H]1O` [Compound 66, (2R,3S,4R,5S,6R)-2-(hydroxymethyl)-6-[2-[5-(4-phenyltriazol-1-yl)-1H-indazol-7-yl]ethynyl]tetrahydropyran-3,4,5-triol] belongs 2 nM; to `CN1CC=C(c2cc(C#C[C@H]3O[C@H](CO)[C@@H](O)[C@H](O)[C@@H]3O)c3[nH]ncc3c2)CC1` [Compound 67, (2R,3S,4R,5S,6R)-2-(hydroxymethyl)-6-[2-[5-(1-methyl-3,6-dihydro-2H-pyridin-4-yl)-1H-indazol-7-yl]ethynyl]tetrahydropyran-3,4,5-triol], 2 ± 0.9 nM; to `OC[C@H]1O[C@H](C#Cc2cc(C3=CCOCC3)cc3cn[nH]c23)[C@@H](O)[C@@H](O)[C@@H]1O` [Compound 68, (2R,3S,4R,5S,6R)-2-[2-[5-(3,6-dihydro-2H-pyran-4-yl)-1H-indazol-7-yl]ethynyl]-6-(hydroxymethyl)tetrahydropyran-3,4,5-triol], 1 ± 0.4 nM.
For the compound `CCc1ccc(/C=C/c2cc(C#C[C@H]3O[C@H](CO)[C@@H](O)[C@H](O)[C@@H]3O)c3[nH]ncc3c2)cc1` [Compound 69, (2R,3S,4R,5S,6R)-2-[2-[5-[(E)-2-(4-ethylphenyl)vinyl]-1H-indazol-7-yl]ethynyl]-6-(hydroxymethyl)tetrahydropyran-3,4,5-triol], the IC50 was 13 ± 9 nM.
Turning to `OC[C@H]1O[C@H](C#Cc2cc(C3=CCCC3)cc3cn[nH]c23)[C@@H](O)[C@@H](O)[C@@H]1O` [Compound 70, (2R,3S,4R,5S,6R)-2-[2-[5-(cyclopenten-1-yl)-1H-indazol-7-yl]ethynyl]-6-(hydroxymethyl)tetrahydropyran-3,4,5-triol], the IC50 amounted to 0.2 ± 0.04 nM.
With `CCOC(=O)C1CC=C(c2cc(C#C[C@H]3O[C@H](CO)[C@@H](O)[C@H](O)[C@@H]3O)c3[nH]ncc3c2)CC1` (stereo partly drawn) [Compound 71, ethyl 4-[7-[2-[(2R,3S,4R,5S,6R)-3,4,5-trihydroxy-6-(hydroxymethyl)tetrahydropyran-2-yl]ethynyl]-1H-indazol-5-yl]cyclohex-3-ene-1-carboxylate], the IC50 was 0.6 ± 0.2 nM.
Turning to `CC(C)(C)OC(=O)n1ccc(-c2cc(C#C[C@H]3O[C@H](CO)[C@@H](O)[C@H](O)[C@@H]3O)c3[nH]ncc3c2)c1` [Compound 72, tert-butyl 3-[7-[2-[(2R,3S,4R,5S,6R)-3,4,5-trihydroxy-6-(hydroxymethyl)tetrahydropyran-2-yl]ethynyl]-1H-indazol-5-yl]pyrrole-1-carboxylate], the half-inhibitory concentration (IC50) amounted to 7 ± 4 nM.
To `COc1ccc(-c2cc(C#C[C@H]3O[C@H](CO)[C@@H](O)[C@H](O)[C@@H]3O)c3[nH]ncc3c2)cn1` [Compound 73, (2R,3S,4R,5S,6R)-2-(hydroxymethyl)-6-[2-[5-(6-methoxy-3-pyridyl)-1H-indazol-7-yl]ethynyl]tetrahydropyran-3,4,5-triol] belongs 0.5 ± 0.09 nM; to `O=c1ccc(-c2cc(C#C[C@H]3O[C@H](CO)[C@@H](O)[C@H](O)[C@@H]3O)c3[nH]ncc3c2)c[nH]1` [Compound 74, 5-[7-[2-[(2R,3S,4R,5S,6R)-3,4,5-trihydroxy-6-(hydroxymethyl)tetrahydropyran-2-yl]ethynyl]-1H-indazol-5-yl]-1H-pyridin-2-one], 0.3 ± 0.05 nM; to `OC[C@H]1O[C@H](C#Cc2cc(-c3ccc(OCc4ccccc4)nc3)cc3cn[nH]c23)[C@@H](O)[C@@H](O)[C@@H]1O` [Compound 75, (2R,3S,4R,5S,6R)-2-[2-[5-(6-benzyloxy-3-pyridyl)-indazol-7-yl]ethynyl]-6-(hydroxymethyl)tetrahydropyran-3,4,5-triol], 2 ± 0.7 nM.
As for `Cc1cc(=O)n(C)cc1-c1cc(C#C[C@H]2O[C@H](CO)[C@@H](O)[C@H](O)[C@@H]2O)c2[nH]ncc2c1` [Compound 76, 1,4-dimethyl-5-[7-[2-[(2R,3S,4R,5S,6R)-3,4,5-trihydroxy-6-(hydroxymethyl)tetrahydropyran-2-yl]ethynyl]-1H-indazol-5-yl]pyridin-2-one], the 50% inhibitory concentration (IC50) worked out at 0.3 ± 0.09 nM.
Turning to `Cc1ccncc1-c1cc(C#C[C@H]2O[C@H](CO)[C@@H](O)[C@H](O)[C@@H]2O)c2[nH]ncc2c1` [Compound 77, (2R,3S,4R,5S,6R)-2-(hydroxymethyl)-6-[2-[5-(4-methyl-3-pyridyl)-1H-indazol-7-yl]ethynyl]tetrahydropyran-3,4,5-triol], the IC50 was found to be 0.1 ± 0.02 nM.
As to `COc1ncc(C)cc1-c1cc(C#C[C@H]2O[C@H](CO)[C@@H](O)[C@H](O)[C@@H]2O)c2[nH]ncc2c1` [Compound 78, (2R,3S,4R,5S,6R)-2-(hydroxymethyl)-6-[2-[5-(2-methoxy-5-methyl-3-pyridyl)-1H-indazol-7-yl]ethynyl]tetrahydropyran-3,4,5-triol], the IC50 is 2 ± 0.6 nM.
The figure for `Cc1cc(-c2cc(C#C[C@H]3O[C@H](CO)[C@@H](O)[C@H](O)[C@@H]3O)c3[nH]ncc3c2)c[nH]c1=O` [Compound 79, 3-methyl-5-[7-[2-[(2R,3S,4R,5S,6R)-3,4,5-trihydroxy-6-(hydroxymethyl)tetrahydropyran-2-yl]ethynyl]-1H-indazol-5-yl]-1H-pyridin-2-one] is 0.4 ± 0.1 nM; for `Cc1nc(O)ccc1-c1cc(C#C[C@H]2O[C@H](CO)[C@@H](O)[C@H](O)[C@@H]2O)c2[nH]ncc2c1` [Compound 80, (2R,3S,4R,5S,6R)-2-(hydroxymethyl)-6-[2-[5-(6-hydroxy-2-methyl-3-pyridyl)-1H-indazol-7-yl]ethynyl]tetrahydropyran-3,4,5-triol] it is 0.2 ± 0.08 nM; for `OC[C@H]1O[C@H](C#Cc2cc(-c3ccc(F)cc3F)cc3cn[nH]c23)[C@@H](O)[C@@H](O)[C@@H]1O` [Compound 81, (2R,3S,4R,5S,6R)-2-[2-[5-(2,4-difluorophenyl)-1H-indazol-7-yl]ethynyl]-6-(hydroxymethyl)tetrahydropyran-3,4,5-triol] it is 0.4 ± 0.2 nM.
Consider `Cc1ccc(C)c(-c2cc(C#C[C@H]3O[C@H](CO)[C@@H](O)[C@H](O)[C@@H]3O)c3[nH]ncc3c2)c1` [Compound 82, (2R,3S,4R,5S,6R)-2-[2-[5-(2,5-dimethylphenyl)-1H-indazol-7-yl]ethynyl]-6-(hydroxymethyl)tetrahydropyran-3,4,5-triol], for which the IC50 amounted to 1 nM.
Consider `Cc1cc(-c2cc(C#C[C@H]3O[C@H](CO)[C@@H](O)[C@H](O)[C@@H]3O)c3[nH]ncc3c2)cc(C)n1` [Compound 83, (2R,3S,4R,5S,6R)-2-[2-[5-(2,6-dimethyl-4-pyridyl)-1H-indazol-7-yl]ethynyl]-6-(hydroxymethyl)tetrahydropyran-3,4,5-triol], for which the half-inhibitory concentration (IC50) amounted to 0.7 ± 0.5 nM.

Source of the values: patent US10407414B2, “Mannose derivatives for treating bacterial infections” (priority 2015, dated 2019).
